Experimental data taken from patent US8809232B2, “Herbicidal compositions comprising 4-amino-3-chloro-5-fluoro-6-(4-chloro-2-fluoro-3-methoxyphenyl) pyridine-2-carboxylic acid or a derivative thereof and halosulfuron, pyrazosulfuron and esprocarb” (Dow Agrosciences LLC, priority 2012, dated 2014).

Key:
SCPMA = test: In-water applied herbicidal mixtures, greenhouse, transplanted paddy rice weeds; type: in vivo
Description: (§1) Weed seeds or nutlets of the desired test plant species were planted in puddled soil (mud) prepared by mixing a shredded, non-sterilized mineral soil (50.5 percent silt, 25.5 percent clay, and 24 percent sand, with a pH of about 7.6 and an organic matter content of about 2.9 percent) and water at a 1:1 volumetric ratio. The prepared mud was dispensed in 365 mL aliquots into 16-ounce (oz.) non-perforated plastic pots with a surface area of 86.59 square centimeters (cm^2) leaving a headspace of 3 centimeters (cm) in each pot Mud was allowed to dry overnight prior to planting or transplanting. Rice seeds were planted in Sun Gro MetroMix® 306 planting mixture, which typically has a pH of 6.0 to 6.8 and an organic matter content of about 30 percent, in plastic plug trays. Seedlings at the second or third leaf stage of growth were transplanted into 840 mL of mud contained in 32-oz. non-perforated plastic pots with a surface area of 86.59 cm^2 4 days prior to herbicide application. The paddy was created by filling the headspace of the pots with 2.5 to 3 cm of water. When required to ensure good germination and healthy plants, a fungicide treatment and/or other chemical or physical treatment was applied. The plants were grown for 4-22 days in a greenhouse with an approximate 14 hr photoperiod which was maintained at about 29′C during the day and 26° C. during the night. Nutrients were added as Osmocote® (19:6:12, N:P:K^+ minor nutrients) at 2 g per 16-oz. pot and 4 g per 32-oz. pot. Water was added on a regular basis to maintain the paddy flood, and supplemental lighting was provided with overhead metal halide 1000-Watt lamps as necessary. The plants were employed for testing when they reached the first through fourth true leaf stage.
(§2) Treatments consisted of the acid or esters of 4-amino-3-chloro-5-fluoro-6-(4-chloro-2-fluoro-3-methoxy-phenyl)pyridine-2-carboxylic acid (compound A) each formulated as an SC (suspension concentrate) and various herbicidal components alone and in combination. Forms of compound A were applied on an acid equivalent basis.
(§3) Other herbicidal components were applied on an active ingredient basis and included acetolactate synthase (ALS)-inhibiting herbicides formulated as Permit® 75 WDG, pyrazosulfuron-ethyl formulated as Agreen® WG or Sirius® G, and VLCFA inhibiting herbicide esprocarb (technical grade material).
(§4) Treatment requirements for each compound or herbicidal component were calculated based upon the rates being tested, the concentration of active ingredient or acid equivalent in the formulation, an application volume of 2 mL per component per pot, and an application area of 86.59 cm^2 per pot.
(§5) For formulated compounds, a measured amount was placed in an individual 100 or 200 mL glass vial and was dissolved in a volume of 1.25% (v/v) Agri-Dex® crop oil concentrate to obtain application solutions.
(§6) For technical grade compounds, a weighed amount was placed in an individual 100 to 200 mL glass vial and was dissolved in a volume of acetone to obtain concentrated stock solutions. […] The concentrated stock solutions obtained were diluted with an equivalent volume of an aqueous mixture containing 2.5% (v/v) crop oil concentrate so that the final application solutions contained 1.25% (v/v) crop oil concentrate.
(§7) Applications were made by injecting with a pipetter appropriate amounts of the application solutions, individually and sequentially, into the aqueous layer of the paddy. Control plants were treated in the same manner with the solvent blank. Applications were made so that all treated plant material received the same concentrations of acetone and crop oil concentrate.
(§8) The treated plants and control plants were placed in a greenhouse as described above and water was added as needed to maintain a paddy flood. […]

CYPRO = test: as above; type: in vivo, Cyperus rotundus L.
Description: as §1, §2, §3, §4, §5, §6, §7, §8

ECHOR = test: as above; type: in vivo, Echinochloa oryzoides (Ard.) Fritsch
Description: as §1, §2, §3, §4, §5, §6, §7, §8

ECHCG = test: as above; type: in vivo, Echinochloa crus-galli (L.) Beauv.; conditions: 17.5 g ai/ha
Description: as §1, with “Water was added on a regular basis to maintain the paddy flood, and supplemental lighting was provided with overhead metal halide 1000-Watt lamps as necessary. The plants were employed for testing when they reached the first through fourth true leaf stage.” left out
as §4
(§9) For formulated compounds, a measured amount was placed in an individual 100 or 200 mL glass vial and was dissolved in a volume of 1.25% (v/v) Agri-Dex® crop oil concentrate to obtain application solutions. […]

LEFCH [1] = test: Post-emergence foliar-applied herbicidal mixtures, greenhouse, direct seeded rice weeds; type: in vivo, Leptochloa chinensis (L.) Nees
Text: (§10) Seeds or nutlets of the desired test plant species were planted in a soil matrix prepared by mixing a loam or sandy loam soil (e.g., 28.6 percent silt, 18.8 percent clay, and 52.6 percent sand, with a pH of about 5.8 and an organic matter content of about 1.8 percent) and calcareous grit in an 80 to 20 ratio. The soil matrix was contained in plastic pots with a volume of 1 quart and a surface area of 83.6 square centimeters (cm^2). When required to ensure good germination and healthy plants, a fungicide treatment and/or other chemical or physical treatment was applied. The plants were grown for 8-22 days in a greenhouse with an approximate 14 hr photoperiod which was maintained at about 29° C. during the day and 26° C. during the night. Nutrients (Peters Excel® 15-5-15 5-Ca 2-Mg and iron chelate) were applied in the irrigation solution as needed and water was added on a regular basis. Supplemental lighting was provided with overhead metal halide 1000-Watt lamps as necessary. The plants were employed for testing when they reached the first through fourth true leaf stage.
as §2, with “(Compound A),” for “(compound A)”, “concentrate),” for “concentrate)”
(§11) Other herbicidal components were applied on an active ingredient basis and included the acetolactate synthase (ALS)-inhibiting herbicides halosulfuron-methyl formulated as Permit® 75 WDG, pyrazosulfuron-ethyl formulated as Agreen® WG or Sirius® G, and the VLCFA inhibiting herbicide esprocarb (technical grade material).
(§12) Treatment requirements were calculated based upon the rates being tested, the concentration of active ingredient or acid equivalent in the formulation, and a 12 mL application volume at a rate of 187 L/ha.
(§13) For treatments comprised of formulated compounds, measured amounts of compounds were placed individually in 25 mL glass vials and diluted in a volume of 1.25% (v/v) Agri-Dex® crop oil concentrated to obtain 12× stock solutions. […] Application solutions were prepared by adding an appropriate amount of each stock solution (e.g., 1 mL) and diluted to the appropriate final concentrations with the addition of 10 mL of an aqueous mixture of 1.25% (v/v) crop oil concentrate so that the final spray solutions contained 1.25+/−0.05% (v/v) crop oil concentrate.
(§14) For treatments comprised of technical compounds, weighed amounts can be placed individually in 25 mL glass vials and dissolved in a volume of 97:3 v/v acetone/DMSO to obtain 12× stock solutions. […] Application solutions can be prepared by adding an appropriate amount of each stock solution (e.g., 1 mL) and diluted to the appropriate final concentrations with the addition of 10 mL of an aqueous mixture of 1.5% (v/v) crop oil concentrate so that the final spray solutions contain 1.25% (v/v) crop oil concentrate. When technical materials are used, the concentrated stock solutions can be added to the spray solutions so that the final acetone and DMSO concentrations of the application solutions are 16.2% and 0.5%, respectively.
(§15) For treatments comprised of formulated and technical compounds, weighed amounts of the technical materials were placed individually in 25 mL glass vials and dissolved in a volume of 97:3 v/v acetone/DMSO to obtain 12× stock solutions, and measured amounts of the formulated compounds were placed individually in 25 mL glass vials and diluted in a volume of 1.5% (v/v) crop oil concentrate or water to obtain 12× stock solutions. […] Application solutions were prepared by adding an appropriate amount of each stock solution (e.g., 1 mL) and diluted to the appropriate final concentrations with the addition of an appropriate amount of an aqueous mixture of 1.5% (v/v) crop oil concentrate so that the final spray solutions contained 1.25% (v/v) crop oil concentrate. […]

DIGSA = test: as above; type: in vivo, Digitaria sanguinalis (L.) Scop.
Text: as §10
as §2, with “(Compound A),” for “(compound A)”, “concentrate),” for “concentrate)”
as §11, §12, §13, §14, §15

BRAPP = test: as above; type: in vivo
Text: as §10
as §2, with “(Compound A),” for “(compound A)”, “concentrate),” for “concentrate)”
as §11, §12, §13, §14, §15

LEFCH [2] = test: In-water applied herbicidal mixtures, greenhouse, transplanted paddy rice weeds; type: in vivo, Leptochloa chinensis (L.) Nees
Description: as §1, with “Water was added on a regular basis to maintain the paddy flood, and supplemental lighting was provided with overhead metal halide 1000-Watt lamps as necessary. The plants were employed for testing when they reached the first through fourth true leaf stage.” left out
as §4, §9

With `COC(=O)c1c(Cl)nn(C)c1S(=O)(=O)NC(=O)Nc1nc(OC)cc(OC)n1` [Halosulfuron-methyl, methyl 3-chloro-5-[[[[(4,6-dimethoxy-2-pyrimidinyl)amino]carbonyl]amino]sulfonyl]-1-methyl-1H-pyrazole-4-carboxylate, reference compound] the “Visual Weed Control (%) - 20 DAA SCPMA Obs” value (SCPMA; 35 g ai/ha) was 65%, the “Visual Weed Control (%) - 21 DAA CYPRO Obs” value (CYPRO; 8.75 g ai/ha) was 60% and the “Visual Weed Control (%) - 21 DAA CYPRO Obs” value (CYPRO; 17.5 g ai/ha) was 100%. The “Visual Weed Control (%) - 21 DAA ECHOR Obs” value (ECHOR; 8.75 g ai/ha) was 0%, the “Visual Weed Control (%) - 21 DAA ECHOR Obs” value (ECHOR; 17.5 g ai/ha) was 0% and the “Visual Weed Control (%) - 20 DAA ECHOR Obs” value (ECHOR; 35 g ai/ha) was 0%. The “Visual Weed Control (%) - 21 DAA ECHCG Obs” value (ECHCG) was 0%, the “Visual Weed Control (%) - 20 DAA LEFCH Obs” value (LEFCH [1]; 8.75 g ai/ha) was 0% and the “Visual Weed Control (%) - 20 DAA LEFCH Obs” value (LEFCH [1]; 17.5 g ai/ha) was 0%. The “Visual Weed Control (%) - 20 DAA LEFCH Obs” value (LEFCH [1]; 35 g ai/ha) was 5%, the “Visual Weed Control (%) - 20 DAA DIGSA Obs” value (DIGSA; 35 g ai/ha) was 10% and the “Visual Weed Control (%) - 20 DAA BRAPP Obs” value (BRAPP; 4.38 g ai/ha) was 0%. The “Visual Weed Control (%) - 20 DAA BRAPP Obs” value (BRAPP; 8.75 g ai/ha) was 0% and the “Visual Weed Control (%) - 20 DAA BRAPP Obs” value (BRAPP; 17.5 g ai/ha) was 0%.
In the case of `CCOC(=O)c1cnn(C)c1S(=O)(=O)NC(=O)Nc1nc(OC)cc(OC)n1` [Pyrazosulfuron-ethyl, ethyl 5-[[[[(4,6-dimethoxy-2-pyrimidinyl)amino]carbonyl]amino]sulfonyl]-1-methyl-1H-pyrazole-4-carboxylate, reference compound], the “Visual Weed Control (%) - 22 DAA SCPMA Obs” value (SCPMA; 17.5 g ai/ha (Sirius G)) is reported as 80%, the “Visual Weed Control (%) - 22 DAA SCPMA Obs” value (SCPMA; 35 g ai/ha (Sirius G)) is reported as 70% and the “Visual Weed Control (%) - 22 DAA ECHOR Obs” value (ECHOR; 17.5 g ai/ha (Sirius G)) is reported as 0%. For the same molecule, the “Visual Weed Control (%) - 22 DAA ECHOR Obs” value (ECHOR; 35 g ai/ha (Sirius G)) was 0%, the “Visual Weed Control (%) - 20 DAA ECHOR Obs” value (ECHOR; 70 g ai/ha (Sirius G)) was 70% and the “Visual Weed Control (%) - 20 DAA DIGSA Obs” value (DIGSA; 120 g ai/ha (Agreen WG)) was 23%. For the same molecule, the “Visual Weed Control (%) - 21 DAA DIGSA Obs” value (DIGSA; 120 g ai/ha (Agreen WG)) was 23%, the “Visual Weed Control (%) - 22 DAA LEFCH Obs” value (LEFCH [2]; 17.5 g ai/ha (Sirius G)) was 0% and the “Visual Weed Control (%) - 22 DAA LEFCH Obs” value (LEFCH [2]; 35 g ai/ha (Sirius G)) was 0%. The “Visual Weed Control (%) - 21 DAA BRAPP Obs” value (BRAPP; 15 g ai/ha (Agreen WG)) was 0%, the “Visual Weed Control (%) - 21 DAA BRAPP Obs” value (BRAPP; 30 g ai/ha (Agreen WG)) was 0% and the “Visual Weed Control (%) - 21 DAA BRAPP Obs” value (BRAPP; 60 g ai/ha (Agreen WG)) was 10%.
